Reference: ChEMBL document CHEMBL1909046, “DrugMatrix in vitro pharmacology data”

What was measured:
Cytochrome P450 2A6 = target: T1, Cytochrome P450 2A6 (Homo sapiens, UniProt P11509); conditions: bti-tn-5b1-4; note: in other assays of this panel Not Active means under 50% inhibition at 10 µM
T1 sequence (P11509 whole entry): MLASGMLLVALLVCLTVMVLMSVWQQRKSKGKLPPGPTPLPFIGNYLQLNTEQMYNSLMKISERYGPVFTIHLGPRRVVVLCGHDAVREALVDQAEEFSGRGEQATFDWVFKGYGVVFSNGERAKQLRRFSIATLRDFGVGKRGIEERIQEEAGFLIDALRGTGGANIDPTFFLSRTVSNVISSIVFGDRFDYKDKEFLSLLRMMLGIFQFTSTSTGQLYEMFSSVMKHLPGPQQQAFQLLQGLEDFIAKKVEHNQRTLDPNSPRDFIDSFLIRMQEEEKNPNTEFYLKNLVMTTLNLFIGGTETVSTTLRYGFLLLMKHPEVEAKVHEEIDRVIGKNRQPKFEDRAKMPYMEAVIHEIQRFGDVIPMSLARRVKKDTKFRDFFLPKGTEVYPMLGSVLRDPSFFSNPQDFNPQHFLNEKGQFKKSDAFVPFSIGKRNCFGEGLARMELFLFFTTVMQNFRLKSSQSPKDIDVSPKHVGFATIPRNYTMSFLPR

[1] = target: Receptor tyrosine-protein kinase erbB-2 (Homo sapiens, UniProt P04626); assay: biochemical; format: cell-based, Insect cells;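 note: inhibition of HER2 kinase enzyme activity, measured with Poly(Glu:Tyr) as the phosphorylation substrate; in other assays of this panel Not Active means under 50% inhibition at 10 µM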
Chain of Receptor tyrosine-protein kinase erbB-2 (P04626 whole entry): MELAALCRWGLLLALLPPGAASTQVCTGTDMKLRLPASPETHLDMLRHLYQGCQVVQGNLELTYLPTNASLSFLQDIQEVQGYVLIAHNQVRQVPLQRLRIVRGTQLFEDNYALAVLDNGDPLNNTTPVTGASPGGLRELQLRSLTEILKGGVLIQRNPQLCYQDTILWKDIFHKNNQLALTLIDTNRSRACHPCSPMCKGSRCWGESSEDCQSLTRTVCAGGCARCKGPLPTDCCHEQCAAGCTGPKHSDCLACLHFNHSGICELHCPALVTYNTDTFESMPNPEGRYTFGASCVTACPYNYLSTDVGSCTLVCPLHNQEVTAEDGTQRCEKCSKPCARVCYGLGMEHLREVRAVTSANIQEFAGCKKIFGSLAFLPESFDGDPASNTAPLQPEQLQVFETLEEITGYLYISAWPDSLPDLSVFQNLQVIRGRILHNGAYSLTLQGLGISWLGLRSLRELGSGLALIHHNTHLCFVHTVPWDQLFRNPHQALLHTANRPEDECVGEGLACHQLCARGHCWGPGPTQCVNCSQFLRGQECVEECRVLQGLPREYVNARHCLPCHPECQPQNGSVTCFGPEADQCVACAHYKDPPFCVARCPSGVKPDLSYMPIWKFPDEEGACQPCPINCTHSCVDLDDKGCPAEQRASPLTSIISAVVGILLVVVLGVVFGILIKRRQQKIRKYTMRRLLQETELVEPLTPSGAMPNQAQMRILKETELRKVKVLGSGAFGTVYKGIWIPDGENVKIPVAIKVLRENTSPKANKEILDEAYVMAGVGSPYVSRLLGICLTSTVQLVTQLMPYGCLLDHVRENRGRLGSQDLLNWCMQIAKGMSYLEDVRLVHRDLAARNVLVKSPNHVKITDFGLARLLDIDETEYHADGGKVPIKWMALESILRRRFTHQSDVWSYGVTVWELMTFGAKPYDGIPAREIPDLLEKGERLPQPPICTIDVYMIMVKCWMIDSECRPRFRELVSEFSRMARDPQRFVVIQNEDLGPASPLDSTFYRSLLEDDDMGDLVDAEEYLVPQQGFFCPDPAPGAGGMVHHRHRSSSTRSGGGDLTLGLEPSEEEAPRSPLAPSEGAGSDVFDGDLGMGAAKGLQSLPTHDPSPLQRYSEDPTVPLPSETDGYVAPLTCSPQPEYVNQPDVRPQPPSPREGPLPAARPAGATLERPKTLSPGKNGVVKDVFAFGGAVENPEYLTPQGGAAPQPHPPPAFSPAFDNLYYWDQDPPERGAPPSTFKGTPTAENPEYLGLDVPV

[2] = DRUGMATRIX: Phosphodiesterase PDE4 enzyme inhibition (substrate: [3H]cAMP + cAMP); conditions: u-937; Not Active = under 50% inhibition at 10 µM
Adenosine receptor A2a = Adenosine receptor A2a (Homo sapiens, UniProt P29274); assay: DRUGMATRIX: Adenosine A2A radioligand binding (ligand: […]); format: cell membranes, HEK293, Membrane; conditions: hek293; Not Active = under 50% inhibition at 10 µM
Chain of Adenosine receptor A2a (P29274 whole entry): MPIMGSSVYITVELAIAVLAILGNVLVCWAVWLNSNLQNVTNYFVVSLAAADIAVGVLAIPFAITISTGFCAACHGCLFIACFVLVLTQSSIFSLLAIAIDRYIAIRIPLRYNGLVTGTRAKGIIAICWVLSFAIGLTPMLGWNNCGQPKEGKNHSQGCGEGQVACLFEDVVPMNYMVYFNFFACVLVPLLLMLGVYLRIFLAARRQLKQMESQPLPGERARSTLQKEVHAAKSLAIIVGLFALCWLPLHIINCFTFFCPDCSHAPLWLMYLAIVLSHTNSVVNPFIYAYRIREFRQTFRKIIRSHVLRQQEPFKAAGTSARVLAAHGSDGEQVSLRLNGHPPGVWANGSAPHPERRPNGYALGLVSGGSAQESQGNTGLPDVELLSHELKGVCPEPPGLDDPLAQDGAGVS

[3] = target: T2, Alpha-1D adrenergic receptor (Homo sapiens, UniProt P25100); format: cell membranes, HEK293, Membrane; conditions: hek293; note: in other assays of this panel Not Active means under 50% inhibition at 10 µM
T2 sequence (P25100 whole entry): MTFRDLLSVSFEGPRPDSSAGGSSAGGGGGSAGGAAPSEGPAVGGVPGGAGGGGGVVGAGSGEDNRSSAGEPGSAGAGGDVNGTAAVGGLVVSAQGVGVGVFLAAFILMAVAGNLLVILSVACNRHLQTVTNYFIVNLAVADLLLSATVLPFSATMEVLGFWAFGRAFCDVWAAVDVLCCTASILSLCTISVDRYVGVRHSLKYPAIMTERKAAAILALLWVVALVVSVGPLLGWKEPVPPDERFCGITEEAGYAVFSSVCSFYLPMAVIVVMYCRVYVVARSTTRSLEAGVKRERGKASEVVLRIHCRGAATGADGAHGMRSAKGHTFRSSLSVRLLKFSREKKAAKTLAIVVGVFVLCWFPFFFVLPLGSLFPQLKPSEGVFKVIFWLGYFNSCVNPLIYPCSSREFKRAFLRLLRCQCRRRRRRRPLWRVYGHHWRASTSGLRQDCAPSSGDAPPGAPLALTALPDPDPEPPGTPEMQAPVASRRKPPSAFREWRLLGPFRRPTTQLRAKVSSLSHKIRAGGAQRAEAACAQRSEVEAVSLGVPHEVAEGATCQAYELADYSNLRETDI

[4] = target: 5-hydroxytryptamine receptor 2B (Homo sapiens, UniProt P41595); format: cell membranes, CHO-K1, Membrane; note: in other assays of this panel Not Active means under 50% inhibition at 10 µM
Chain of 5-hydroxytryptamine receptor 2B (P41595 whole entry): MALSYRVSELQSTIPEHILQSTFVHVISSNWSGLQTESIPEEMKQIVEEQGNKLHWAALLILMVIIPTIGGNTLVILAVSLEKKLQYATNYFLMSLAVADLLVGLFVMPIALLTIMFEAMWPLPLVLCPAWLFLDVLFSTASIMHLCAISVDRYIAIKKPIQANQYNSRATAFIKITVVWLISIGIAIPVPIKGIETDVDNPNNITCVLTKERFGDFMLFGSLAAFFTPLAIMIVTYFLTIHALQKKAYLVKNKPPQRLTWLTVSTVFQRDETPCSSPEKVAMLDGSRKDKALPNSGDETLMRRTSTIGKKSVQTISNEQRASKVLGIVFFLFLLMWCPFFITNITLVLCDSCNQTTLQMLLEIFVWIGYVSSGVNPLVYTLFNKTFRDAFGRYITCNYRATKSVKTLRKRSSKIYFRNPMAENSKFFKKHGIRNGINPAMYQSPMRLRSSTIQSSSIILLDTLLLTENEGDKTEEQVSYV

B2 bradykinin receptor = target: T3, B2 bradykinin receptor (Homo sapiens, UniProt P30411); format: cell membranes, Membrane; conditions: chem-1; note: in other assays of this panel Not Active means under 50% inhibition at 10 µM
T3 sequence (P30411 whole entry): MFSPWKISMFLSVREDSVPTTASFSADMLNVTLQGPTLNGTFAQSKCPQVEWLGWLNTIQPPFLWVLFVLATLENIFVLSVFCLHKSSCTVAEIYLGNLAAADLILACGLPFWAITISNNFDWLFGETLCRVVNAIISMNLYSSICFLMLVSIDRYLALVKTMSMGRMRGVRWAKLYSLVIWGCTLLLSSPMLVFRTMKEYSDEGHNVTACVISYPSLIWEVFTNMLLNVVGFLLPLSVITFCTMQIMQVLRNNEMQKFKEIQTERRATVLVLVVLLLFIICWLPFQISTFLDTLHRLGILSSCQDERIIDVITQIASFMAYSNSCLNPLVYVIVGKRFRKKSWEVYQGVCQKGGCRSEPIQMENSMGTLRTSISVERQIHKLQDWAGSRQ

Endothelin-1 receptor = target: T4, Endothelin-1 receptor (Homo sapiens, UniProt P25101); format: cell membranes, Membrane; conditions: cho-k1; note: in other assays of this panel Not Active means under 50% inhibition at 10 µM
T4 sequence (P25101 whole entry): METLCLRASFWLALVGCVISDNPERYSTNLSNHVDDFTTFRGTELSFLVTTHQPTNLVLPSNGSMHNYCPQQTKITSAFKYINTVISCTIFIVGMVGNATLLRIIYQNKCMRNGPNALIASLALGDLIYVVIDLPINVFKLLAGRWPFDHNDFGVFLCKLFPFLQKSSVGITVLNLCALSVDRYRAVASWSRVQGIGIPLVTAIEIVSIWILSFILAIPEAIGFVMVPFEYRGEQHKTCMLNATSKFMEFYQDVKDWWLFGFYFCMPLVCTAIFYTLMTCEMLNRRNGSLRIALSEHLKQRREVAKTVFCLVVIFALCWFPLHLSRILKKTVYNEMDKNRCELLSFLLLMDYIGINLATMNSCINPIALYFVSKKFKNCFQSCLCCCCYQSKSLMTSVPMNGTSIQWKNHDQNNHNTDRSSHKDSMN

Nitric oxide synthase 1 = Nitric oxide synthase 1 (Rattus norvegicus, UniProt P29476); format: tissue-based, Cerebellum; note: in other assays of this panel Not Active means under 50% inhibition at 10 µM
Chain of Nitric oxide synthase 1 (P29476 whole entry): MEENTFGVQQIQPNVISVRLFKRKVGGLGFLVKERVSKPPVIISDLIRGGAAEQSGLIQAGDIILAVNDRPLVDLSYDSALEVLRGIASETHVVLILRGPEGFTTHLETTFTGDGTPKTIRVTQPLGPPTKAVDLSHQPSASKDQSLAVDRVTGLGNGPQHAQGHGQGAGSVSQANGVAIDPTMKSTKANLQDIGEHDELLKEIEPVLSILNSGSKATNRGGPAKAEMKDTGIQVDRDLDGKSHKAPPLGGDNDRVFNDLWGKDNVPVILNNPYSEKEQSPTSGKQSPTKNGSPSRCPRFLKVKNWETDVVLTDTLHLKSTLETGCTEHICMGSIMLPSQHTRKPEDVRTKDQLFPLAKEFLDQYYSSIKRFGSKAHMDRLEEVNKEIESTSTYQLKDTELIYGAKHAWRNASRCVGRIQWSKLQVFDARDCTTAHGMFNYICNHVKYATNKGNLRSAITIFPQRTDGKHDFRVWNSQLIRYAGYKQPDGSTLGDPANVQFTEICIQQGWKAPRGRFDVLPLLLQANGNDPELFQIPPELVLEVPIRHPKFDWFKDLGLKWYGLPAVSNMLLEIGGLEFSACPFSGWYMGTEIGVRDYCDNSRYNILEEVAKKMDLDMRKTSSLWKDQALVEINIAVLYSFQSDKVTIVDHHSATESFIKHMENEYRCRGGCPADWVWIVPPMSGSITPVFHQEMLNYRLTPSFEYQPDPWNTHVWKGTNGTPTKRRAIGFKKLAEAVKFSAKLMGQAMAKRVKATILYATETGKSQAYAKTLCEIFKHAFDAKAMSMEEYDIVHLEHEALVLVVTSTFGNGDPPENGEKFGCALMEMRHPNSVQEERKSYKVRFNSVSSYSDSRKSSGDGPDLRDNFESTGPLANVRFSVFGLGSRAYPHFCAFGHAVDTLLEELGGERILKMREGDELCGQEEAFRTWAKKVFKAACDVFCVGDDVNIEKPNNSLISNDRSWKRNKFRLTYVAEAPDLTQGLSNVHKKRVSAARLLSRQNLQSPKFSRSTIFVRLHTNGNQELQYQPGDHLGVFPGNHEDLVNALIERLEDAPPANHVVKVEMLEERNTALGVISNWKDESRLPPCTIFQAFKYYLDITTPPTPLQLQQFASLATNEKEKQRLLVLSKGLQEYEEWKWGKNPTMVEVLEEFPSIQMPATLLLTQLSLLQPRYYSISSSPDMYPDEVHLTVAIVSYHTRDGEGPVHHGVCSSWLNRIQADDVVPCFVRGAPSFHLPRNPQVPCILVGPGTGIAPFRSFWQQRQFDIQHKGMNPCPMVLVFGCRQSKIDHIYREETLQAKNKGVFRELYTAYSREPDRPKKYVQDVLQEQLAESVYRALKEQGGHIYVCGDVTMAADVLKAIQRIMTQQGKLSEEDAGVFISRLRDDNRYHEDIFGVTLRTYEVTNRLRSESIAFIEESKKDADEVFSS

Row | SMILES | IC50 (Cytochrome P450 2A6) | Ki (Cytochrome P450 2A6) | IC50 ([1]; insect cells) | IC50 [2] | Ki [2] | IC50 (Adenosine receptor A2a) | IC50 [3] | IC50 ([4]; cho-k1) | IC50 (B2 bradykinin receptor) | IC50 (Endothelin-1 receptor) | IC50 (Nitric oxide synthase 1) | IC50 ([4]; read-out: IC50) | Ki ([4]; read-out: Ki) | IC50 ([1]; read-out: IC50)
1 | CC(=O)S[C@@H]1CC2=CC(=O)CC[C@]2(C)[C@H]2CC[C@@]3(C)[C@@H](CC[C@@]34CCC(=O)O4)[C@H]12 [SPIRONOLACTONE] | Not Active | Not Active | Not Active | Not Active | Not Active | Not Active | Not Active | Not Active | Not Active | Not Active | Not Active | – | – | –
2 | CN(C)[C@@H]1C(O)=C(C(N)=O)C(=O)[C@@]2(O)C(O)=C3C(=O)c4c(O)cccc4[C@@](C)(O)[C@H]3C[C@@H]12 [TETRACYCLINE] | Not Active | Not Active | Not Active | Not Active | Not Active | Not Active | Not Active | Not Active | Not Active | Not Active | Not Active | – | – | –
3 | Nc1ccc(S(=O)(=O)Nc2ccnn2-c2ccccc2)cc1 [SULFAPHENAZOLE] | Not Active | Not Active | Not Active | Not Active | Not Active | Not Active | Not Active | Not Active | Not Active | Not Active | Not Active | – | – | –
4 | COc1c(C)c2c(c(O)c1C/C=C(\C)CCC(=O)OCCN1CCOCC1)C(=O)OC2 [MYCOPHENOLATE MOFETIL] | Not Active | Not Active | Not Active | Not Active | Not Active | Not Active | Not Active | Not Active | Not Active | Not Active | Not Active | – | – | –
5 | Nc1nnc(-c2cccc(Cl)c2Cl)c(N)n1 [LAMOTRIGINE] | Not Active | Not Active | Not Active | Not Active | Not Active | Not Active | Not Active | Not Active | Not Active | Not Active | Not Active | – | – | –
6 | NC(=O)c1ccccc1O [SALICYLAMIDE] | Not Active | Not Active | Not Active | Not Active | Not Active | Not Active | Not Active | Not Active | Not Active | Not Active | Not Active | – | – | –
7 | C=CC[C@@H]1/C=C(\C)C[C@H](C)C[C@H](OC)[C@H]2O[C@@](O)(C(=O)C(=O)N3CCCC[C@H]3C(=O)O[C@H](/C(C)=C/[C@@H]3CC[C@@H](O)[C@H](OC)C3)[C@H](C)[C@@H](O)CC1=O)[C@H](C)C[C@@H]2OC [TACROLIMUS ANHYDROUS] | Not Active | Not Active | Not Active | Not Active | Not Active | Not Active | Not Active | Not Active | Not Active | Not Active | Not Active | – | – | –
8 | c1ccc2[nH]c(-c3cscn3)nc2c1 [THIABENDAZOLE] | Not Active | Not Active | Not Active | Not Active | Not Active | Not Active | Not Active | Not Active | Not Active | Not Active | Not Active | – | – | –
9 | COc1ccc(C(CN(C)C)C2(O)CCCCC2)cc1 (centres undefined) [VENLAFAXINE] | Not Active | Not Active | Not Active | Not Active | Not Active | Not Active | Not Active | Not Active | Not Active | Not Active | Not Active | – | – | –
10 | CC(C)(C)NC(=O)[C@@H]1CN(Cc2cccnc2)CCN1C[C@@H](O)C[C@@H](Cc1ccccc1)C(=O)N[C@H]1c2ccccc2C[C@H]1O.O | Not Active | Not Active | Not Active | Not Active | Not Active | Not Active | Not Active | Not Active | Not Active | Not Active | Not Active | – | – | –
11 | Clc1ccc(C(c2ccccc2Cl)C(Cl)Cl)cc1 (centres undefined) [MITOTANE] | Not Active | Not Active | Not Active | Not Active | Not Active | Not Active | Not Active | – | Not Active | Not Active | Not Active | 4.83 µM | 3.08 µM | –
12 | Oc1c(I)cc(I)c2cccnc12 [IODOQUINOL] | Not Active | Not Active | – | Not Active | Not Active | Not Active | Not Active | Not Active | Not Active | Not Active | Not Active | – | – | 8.58 µM
13 | NNc1ccccc1 [PHENYLHYDRAZINE] | Not Active | Not Active | Not Active | Not Active | Not Active | Not Active | Not Active | Not Active | Not Active | Not Active | Not Active | – | – | –
